Assay results published in publication PMC6213309, “Antibacterial Activity and Mechanism of Action of Bovine Lactoferricin Derivatives with Symmetrical Amino Acid Sequences” (International Journal of Molecular Sciences, 2018).
Read-outs that look alike come from different tables or passages of the source. Ends that are not written are not given here.

Legend:
E. coli ATCC 25922 = assay type: cell-based
Description: (§2) The antimicrobial activity of the peptides were defined as the minimum inhibitory concentrations (MIC) according to the Clinical and Laboratory Standards Institute broth microdilution method as described previously [47]. Briefly, 50 μL two-fold serial dilutions of peptides (with final concentrations ranging from 0 μM to 256 μM) and 50 μL bacterial fluids diluted with MHB were added to 96-well microtiter plates. The plates were then incubated at 37 °C for 18 h.

E. coli UB 1005 = assay type: cell-based
Description: as §2

[1] = system: Salmonella typhimurium C 7731; assay type: cell-based
Description: as §2

[2] = system: Salmonella typhimurium ATCC 14028; assay type: cell-based
Description: as §2

[3] = system: Salmonella pullorum C 7913; assay type: cell-based; conditions: 18 h
[4] = system: Salmonella enterica subsp. CMCC 50071; conditions: MHB, 37 °C, 18 h, peptides 0-256 μM, triplicate samples
Description: (§1) The antimicrobial activity of the peptides were defined as the minimum inhibitory concentrations (MIC) according to the Clinical and Laboratory Standards Institute broth microdilution method as described previously. Briefly, 50 μL two-fold serial dilutions of peptides (with final concentrations ranging from 0 μM to 256 μM) and 50 μL bacterial fluids diluted with MHB were added to 96-well microtiter plates. The plates were then incubated at 37 °C for 18 h.

S. aureus ATCC 29213 = assay type: cell-based
S. aureus ATCC 25923 = assay type: cell-based
[5] = system: S. epidermidis ATCC 12228; assay type: cell-based
Description: as §2

E. coli ATCC25922 = conditions: for MIC after Trypsin: peptide treated with 1 mg/mL trypsin
Description: as §1
We assessed the salt stability, thermal stability, and enzymatic stability of the AMPs. Briefly, E. coli ATCC25922 was selected as the test bacterium. The control group was untreated peptides. Different concentrations of salts (150 mM NaCl, 4.5 mM KCl, 6 μM NH4Cl, 1 mM MgCl2, […], 8 mM […], 2.5 mM CaCl2, and 4 mM FeCl3) were added to the incubation buffer to examine the effect of each salt on the antimicrobial activities of the peptides. AMPs were treated for 1 h at 100 °C to test the thermal stability. AMPs were also treated with trypsin, pepsin, papain, and protease K at a concentration of 1 mg/mL for 1 h at 37 °C to test enzyme stability.

[6] = system: human red blood cells (hRBCs); experiment: Hemolytic activity; assay type: cell-based; conditions: lowest concentration causing 5% hemolysis of hRBCs; 1% hRBCs in PBS pH 7.2, 37 °C, 1 h, absorbance 570 nm
Description: Hemolytic activity against human red blood cells (hRBCs) was determined as described before. Briefly, 1 mL of fresh hRBCs was centrifuged in PBS (pH 7.2). After washing two times, the hRBCs were resuspended with PBS at a concentration of 1%. Next, 50 μL of the hRBCs solution was added to 50 μL PBS containing two-fold serial dilutions of peptides in each well. The plates were then incubated at 37 °C for 1 h and centrifuged at 1000× g for 5 min. The supernatants were removed, and the release of hemoglobin was determined by measuring the absorbance at 570 nm using a microplate reader (Bio-Rad, Hercules CA, USA). Erythrocyte suspensions in PBS and 0.1% Triton X-100 were used as negative and positive controls, respectively. Melittin was the control peptide.

[7] = Salmonella typhimurium C 7731, MHB, 37 °C, 18 h, peptides 0-256 μM, triplicate samples
[8] = Salmonella typhimurium ATCC 14028, MHB, 37 °C, 18 h, peptides 0-256 μM, triplicate samples
[9] = Salmonella pullorum C 7913, MHB, 37 °C, peptides 0-256 μM, triplicate samples
[10] = S. aureus ATCC 29213, MHB, 37 °C, 18 h, peptides 0-256 μM, triplicate samples
[11] = S. aureus ATCC 25923, MHB, 37 °C, 18 h, peptides 0-256 μM, triplicate samples
[12] = S. epidermidis ATCC 12228, MHB, 37 °C, 18 h, peptides 0-256 μM, triplicate samples
[13] = E. coli ATCC25922, peptide treated 1 h at 100 °C
[14] = E. coli ATCC25922, peptide treated with 1 mg/mL papain, 1 h, 37 °C
[15] = E. coli ATCC25922, peptide treated with 1 mg/mL pepsin, 1 h, 37 °C
[16] = E. coli ATCC25922, peptide treated with 1 mg/mL protease K, 1 h, 37 °C
[17] = E. coli ATCC25922, untreated peptides

KKRRWQWRRKK-NH2 [KK-KK]
16 µM: MIC in the presence of Ca2+ (E. coli ATCC25922; ATCC25922, 18 h) | MIC in the presence of K+ (E. coli ATCC25922; ATCC25922, 18 h) | MIC in the presence of Na+ (E. coli ATCC25922; ATCC25922, 18 h)
>128 µM: MIC [1, 7] | MIC [2, 8] | MIC (S. aureus ATCC 29213; [10]) | MIC [5, 12] | MIC following heating at 100 °C (E. coli ATCC25922; [13]) | MIC after Papain (E. coli ATCC25922; [14]) | MIC after Pepsin (E. coli ATCC25922; [15]) | MIC after Protease K (E. coli ATCC25922; [16]) | MIC after Trypsin (E. coli ATCC25922; E. coli ATCC25922, 1 h, 37 °C)
8 µM: MIC in the presence of Fe3+ (E. coli ATCC25922; ATCC25922, 18 h) | MIC in the presence of NH4+ (E. coli ATCC25922; ATCC25922, 18 h) | MIC in the presence of Zn2+ (E. coli ATCC25922; ATCC25922, 18 h)
64 µM: MIC in the presence of Mg2+ (E. coli ATCC25922; ATCC25922, 18 h)
128 µM: MIC [3, 9] | MIC [4] | MIC (S. aureus ATCC 25923; [11])
32 µM: MIC (E. coli ATCC 25922; ATCC25922, 18 h) | MIC (E. coli UB 1005; UB 1005, 18 h) | MIC, Control (enzymatic stability) (E. coli ATCC25922; ATCC25922, 18 h) | MIC, Control (salt stability) (E. coli ATCC25922; ATCC25922, 18 h) | MIC, Control (thermal stability) (E. coli ATCC25922; ATCC25922, 18 h)

FPRRWQWRRPF-NH2 [FP-PF]
16 µM: MIC [3] | MIC after Pepsin (E. coli ATCC25922; ATCC25922, 1 h)
8 µM: MIC (E. coli UB 1005; UB 1005, 18 h) | MIC after Papain (E. coli ATCC25922; ATCC25922, 1 h) | MIC following heating at 100 °C (E. coli ATCC25922; ATCC25922, 1 h) | MIC in the presence of Ca2+ (E. coli ATCC25922; ATCC25922, 18 h) | MIC in the presence of K+ (E. coli ATCC25922; ATCC25922, 18 h) | MIC in the presence of Mg2+ (E. coli ATCC25922; ATCC25922, 18 h) | MIC in the presence of NH4+ (E. coli ATCC25922; ATCC25922, 18 h) | MIC in the presence of Zn2+ (E. coli ATCC25922; ATCC25922, 18 h)
4 µM: MIC (E. coli ATCC 25922; ATCC25922, 18 h) | MIC after Protease K (E. coli ATCC25922; ATCC25922, 1 h) | MIC in the presence of Fe3+ (E. coli ATCC25922; ATCC25922, 18 h) | MIC, Control (enzymatic stability) (E. coli ATCC25922; ATCC25922, 18 h) | MIC, Control (salt stability) (E. coli ATCC25922; ATCC25922, 18 h) | MIC, Control (thermal stability) (E. coli ATCC25922; ATCC25922, 18 h)
32 µM: MIC ([2]; ATCC 14028, 18 h) | MIC (S. aureus ATCC 29213; ATCC 29213, 18 h) | MIC (S. aureus ATCC 25923; ATCC 25923, 18 h)
64 µM: MIC ([1]; murium C 7731, 18 h) | MIC ([5]; ATCC 12228, 18 h) | MIC in the presence of Na+ (E. coli ATCC25922; ATCC25922, 18 h)
128 µM: MIC [4] | MIC after Trypsin (E. coli ATCC25922; E. coli ATCC25922, 1 h, 37 °C)

KCRRWQWRMKK-NH2 [LFcinB18–28, reference compound]
8 µM: MIC in the presence of NH4+ (E. coli ATCC25922; E. coli ATCC25922, 6 μM NH4Cl) | MIC in the presence of Zn2+ (E. coli ATCC25922; E. coli ATCC25922, 8 mM ZnCl3)
4 µM: MIC in the presence of Fe3+ (E. coli ATCC25922; E. coli ATCC25922, 4 mM FeCl3)
>128 µM: MIC [1, 7] | MIC [2, 8] | MIC [3, 9] | MIC [4] | MIC (S. aureus ATCC 29213; [10]) | MIC [5, 12] | MIC after Papain (E. coli ATCC25922; [14]) | MIC after Pepsin (E. coli ATCC25922; [15]) | MIC after Protease K (E. coli ATCC25922; [16]) | MIC after Trypsin (E. coli ATCC25922; E. coli ATCC25922, 1 h, 37 °C)
16 µM: MIC (E. coli ATCC 25922; E. coli ATCC 25922, MHB, 37 °C, 18 h, peptides 0-256 μM, triplicate samples) | MIC in the presence of Mg2+ (E. coli ATCC25922; E. coli ATCC25922, 1 mM MgCl2) | MIC in the presence of Ca2+ (E. coli ATCC25922; E. coli ATCC25922, 2.5 mM CaCl2) | MIC in the presence of K+ (E. coli ATCC25922; E. coli ATCC25922, 4.5 mM KCl) | MIC in the presence of Na+ (E. coli ATCC25922; E. coli ATCC25922, 150 mM NaCl) | MIC following heating at 100 °C (E. coli ATCC25922; [13]) | MIC, Control (enzymatic stability) (E. coli ATCC25922; [17]) | MIC, Control (thermal stability) (E. coli ATCC25922; [17]) | MIC, Control (salt stability) (E. coli ATCC25922; E. coli ATCC25922, untreated peptides, no added salt)
128 µM: MIC (E. coli UB 1005; E. coli UB 1005, MHB, 37 °C, 18 h, peptides 0-256 μM, triplicate samples) | MIC (S. aureus ATCC 25923; [11])
>256 µM: MHC (minimum hemolytic concentration) [6]
